Assay results published in patent US8415309B2, “Bicyclic nucleosides and nucleotides as therapeutic agents” (priority 2009, dated 2013).

How the values were obtained:
[1] = In vitro anabolism of Compound 9, intracellular triphosphate in primary human hepatocytes; assay type: in vitro ADME; conditions: human, plated primary human hepatocytes, Human Hepatocytes
Method: (§1) In vitro anabolism of Compound 9 and the intracellular accumulation of its triphosphate (Compound 25) were studied in adherent Huh-7 and plated primary human hepatocytes. The Huh-7 human hepatoma liver cells (JCRB0403 http://cellbank.nibio.go.jp/) are maintained in DMEM containing 10% fetal bovine serum (FBS). Huh-7 cell clones carrying a HCV subgenomic replicon (Lohmann et al., 1999. Science 285: 110-113) are maintained in DMEM supplemented with 10% FBS and 0.25 mg/ml G418. The cell lines are grown at 37° C. in a 5% CO2-95% air atmosphere. Plated primary human hepatocytes (6-well Collagen/No Overlay) were purchased from Cellz Direct (NC, USA) and maintained in InVitroGro Medium (Celsis, In Vitro Technologies, MD USA) under the same incubation conditions.
(§2) For intracellular anabolism studies, Huh-7 cells are trypsinized, harvested, re-suspended in DMEM supplemented with 10% FBS, counted and seeded at a density of 0.7×10^6 cells per well in a six-well plate and incubated for a period of 24 hr at 37° C. in 5% CO^2 atmosphere. Media is removed and replaced with fresh DMEM+10% FBS containing 10 μM Compound 9 for a period of 24 hr at 37° C. The cell monolayer is then quickly washed three times with drug-free medium to remove extracellular Compound 9 and each well is incubated with fresh DMEM+10% FBS for a specified time period (i.e. 6-wells at 0, 2, 4, 8, 24 and 48 hr). At the end of the incubation period, the medium is aspirated from the well and the cell monolayer is washed with cold phosphate buffered saline, pH 7.4. The washed cell monolayer is treated with 1.0 ml ice-cold 70% methanol:water, scraped and harvested into a centrifuge tube and then sonicated for 1 min at 4° C. The resulting cell lysate is stored overnight at −80° C. and subsequently used to extract the metabolites of Compound 9. Isolation of Compound 9 and the intracellular metabolites of Compound 9 from plated primary human hepatocytes uses similar experimental conditions, except that InVitroGro Medium is used as the cell culture medium.
(§3) Sample Analysis for intracellular nucleoside metabolites: The cell lysate samples are thawed on ice, and subjected to two freeze/thaw cycles in a dry ice/acetone bath. Cells extracts are vortexed and centrifuged at 16000 g for 5 min at 4° C. and 40 μL of supernatant is injected for analysis using a API4000 triple quadrupole system. The Shimadzu LC autosampler is set at 4° C. to minimize evaporation. Compound 9 mono-, di- and triphosphate (Compound 25) are separated using a pH gradient on a Biobasic AX, 3.0×50 mm column maintained at 40° C. […] The respective metabolites are identified and quantified by comparing their chromatographic profiles and peak area response with those of authentic standards.

[2] = tested on: primary human hepatocytes; test: as above; assay type: in vitro ADME
Method: as §1, §2, §3

[3] = molecular target: T1, HCV NS5bΔ55 (genotype 1b) (Hepatitis C virus genotype 1b, UniProt P26663); test: HCV Polymerase Inhibition Assay; assay type: biochemical
T1 construct: 100 nM HCV NS5bΔ55 (genotype 1b) in a 50 μl reaction mixture
T1 sequence (P26663 2420-2955, stated change not applied): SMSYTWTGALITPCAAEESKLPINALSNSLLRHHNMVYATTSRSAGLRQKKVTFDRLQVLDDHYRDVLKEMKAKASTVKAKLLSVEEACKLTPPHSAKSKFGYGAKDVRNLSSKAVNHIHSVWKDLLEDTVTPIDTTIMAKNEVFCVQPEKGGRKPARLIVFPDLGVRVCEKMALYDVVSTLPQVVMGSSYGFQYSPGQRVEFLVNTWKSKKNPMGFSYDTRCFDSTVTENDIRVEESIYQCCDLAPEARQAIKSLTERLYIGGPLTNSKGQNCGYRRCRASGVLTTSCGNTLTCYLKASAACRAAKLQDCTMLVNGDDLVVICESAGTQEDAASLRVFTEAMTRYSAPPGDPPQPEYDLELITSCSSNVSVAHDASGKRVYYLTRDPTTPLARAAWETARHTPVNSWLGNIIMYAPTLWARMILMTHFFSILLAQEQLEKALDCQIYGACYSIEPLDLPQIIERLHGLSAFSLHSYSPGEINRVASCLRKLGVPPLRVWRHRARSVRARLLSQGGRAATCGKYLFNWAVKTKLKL
Method: Poly r(U) RNA template (Sigma) is employed for the HCV NS5b polymerase inhibition assay using a NS5bΔ55 (genotype 1b) purified enzyme. The kinetic constant, Km, is determined for the Poly r(U) template and ATP using a non-linear, least squares fit of initial rates as a function of substrate concentration assuming Michaelis-Menten kinetics.
Standard RdRp assays consist of 20 μg/mL Poly r(U) RNA template and 100 nM HCV NS5bΔ55 (genotype 1b) in a 50 μl reaction mixture containing 20 mM Tris-HCl, 5 mM MgCl2, 5 mM MnCl2, 3 mM DTT, 72 μM ATP, and 0.019 μM [α-^33P]ATP. Elongation reactions are initiated by the addition of ATP, and proceed for 60 min at 25° C. Reactions are quenched by the addition of 0.2 M EDTA, and product formation is collected by filtration through Multiscreen plates (Millipore). Quantification of product formation was performed using TopCount (Perkin Elmer). The inhibitor concentration at which the enzyme catalysed rate is reduced by half (IC50) is determined using a computer program for curve fitting.

HCV NS5b polymerase = molecular target: T2, HCV NS5b polymerase (Hepatitis C virus genotype 1b, UniProt P26663); test: HCV NS5b Polymerase Ki Determination Assay; assay type: biochemical
T2 construct: 100 nM HCV NS5bΔ55 (genotype 1b) in a 50 μl reaction mixture
T2 sequence (P26663 2420-2955): as the sequence (P26663 2420-2955, stated change not applied) above
Method: A modified method of the NS5b Polymerase inhibition assay was used to determine the Ki and the mode of action for NS5b inhibitor compounds. The enzyme and template were fixed at 100 nM and 20 µg/mL and all other reaction conditions were identical to the NS5b polymerase inhibition assay. The velocity of NS5b reactions were monitored at different ATP and inhibitor concentrations. The ATP concentration ranged from 0.1 μM to 1000 μM, and the concentration of the inhibitor ranged from 0.003 fold to 7 fold of the IC50 value. Velocities obtained at each ATP and inhibitor concentration were analysed using Graph Pad Prism to identify the mode of inhibition and Ki for inhibitor compounds. Under these conditions, the Ki for Compound 25 is 0.08 μM.

[4] = tested on: Huh-7-HCV subgenomic replicon cells; test: In vitro anabolism of Compound 9, intracellular triphosphate in replicon cells; assay type: in vitro ADME, human; conditions: Huh-7 replicon cells; 24 hours incubation with Compound 9 at 10 μM
Method: as §1
as §2, with “The resulting cell lysate is stored overnight at −80° C. and subsequently used to extract the metabolites of Compound 9. Isolation of Compound 9 and the intracellular metabolites of Compound 9 from plated primary human hepatocytes uses similar experimental conditions, except that InVitroGro Medium is used as the cell culture medium.” left out
(§4) Sample Analysis for intracellular nucleoside metabolites: The cell lysate samples are thawed on ice, and subjected to two freeze/thaw cycles in a dry ice/acetone bath. […] The respective metabolites are identified and quantified by comparing their chromatographic profiles and peak area response with those of authentic standards.

[5] = as above; assay type: in vitro ADME, human; conditions: human, Huh-7 cells carrying an HCV subgenomic replicon, Huh-7 replicon cells
Method: as §1
as §2, with “The resulting cell lysate is stored overnight at −80° C. and subsequently used to extract the metabolites of Compound 9. Isolation of Compound 9 and the intracellular metabolites of Compound 9 from plated primary human hepatocytes uses similar experimental conditions, except that InVitroGro Medium is used as the cell culture medium.” left out
as §4

[6] = read-out: Triphosphate decay half-life, Elimination phase (β, h)
[7] = read-out: Triphosphate decay half-life, Initial phase (α, h) (converted)

With `C[C@@]1(O)[C@H](O)[C@@H](COP(=O)(O)OP(=O)(O)OP(=O)(O)O)O[C@H]1c1ccc2c(N)ncnn12` [Compound 25, 4-amino-7-(2-C-methyl-β-D-ribofuranosyl)-pyrrolo[2,1-f][1,2,4]triazine 5′-triphosphate] the half-life at 10 μM [1, 6] was at least 38 h, the half-life at 10 μM [1, 7] was 3.4 h and the “Intracellular Triphosphate Concentration (pmol/million cells, 24 hr incubation)” value ([2]; Human Hepatocytes, 24 hours incubation with Compound 9 at 10 μM) was 339 pmol/million cells. For the same molecule, the “intracellular triphosphate level in primary human hepatocytes relative to replicon cells” value ([2]; same experimental conditions, 10 μM Compound 9, 24 hours) was about 60 fold, the IC50 [3] was 370 nM and the Ki (HCV NS5b polymerase) was 80 nM. For the same molecule, the “Intracellular Triphosphate Concentration (pmol/million cells, 24 hr incubation)” value [4] was 5.7 pmol/million cells, the half-life at 10 μM [5, 6] was at least 38 h and the half-life at 10 μM [5, 7] was 0.59 h.
